Where two headings read alike, the source gives them in different places.
Columns and labels:
Experiment in all cases: biochemical
Parameters in all cases: Eurofins KinaseProfiler full panel at Km ATP, residual kinase activity (%) relative to DMSO
[1] = target: T1, ALK2(h) (Homo sapiens, UniProt Q04771)
T1 construct: gene ACVR1
T1 sequence (Q04771 1-509): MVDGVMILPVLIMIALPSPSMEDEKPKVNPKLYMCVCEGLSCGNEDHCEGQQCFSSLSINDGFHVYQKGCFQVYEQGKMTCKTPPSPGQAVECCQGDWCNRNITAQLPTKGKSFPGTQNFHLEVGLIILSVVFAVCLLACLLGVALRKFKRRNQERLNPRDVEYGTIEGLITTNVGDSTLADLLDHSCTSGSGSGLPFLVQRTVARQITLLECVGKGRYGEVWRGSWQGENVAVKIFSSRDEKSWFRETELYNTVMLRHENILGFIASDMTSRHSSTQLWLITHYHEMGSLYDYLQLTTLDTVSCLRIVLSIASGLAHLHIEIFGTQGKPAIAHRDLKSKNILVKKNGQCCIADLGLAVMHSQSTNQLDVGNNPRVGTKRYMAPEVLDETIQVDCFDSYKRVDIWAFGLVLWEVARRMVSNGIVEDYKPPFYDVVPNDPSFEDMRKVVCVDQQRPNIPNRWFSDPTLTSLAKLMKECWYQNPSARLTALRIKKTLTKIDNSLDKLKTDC
In short: (§1)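 Two 10 µM single-concentration screens were run: a competition-binding screen, in which DNA-tagged kinase bound to immobilized ligands was quantified by qPCR, and a radiometric activity panel at Km ATP. Each is expressed as residual kinase activity (%).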

[2] = target: T2, CK1γ3(h) (Homo sapiens, UniProt Q9Y6M4)
T2 construct: gene CSNK1G3
In short: as §1

[3] = target: T3, IGF-1R(h) (Homo sapiens, UniProt P08069)
T3 construct: gene IGF1R
In short: as §1

[4] = target: T4, Itk(h) (Homo sapiens, UniProt Q08881)
T4 sequence (Q08881 1-620): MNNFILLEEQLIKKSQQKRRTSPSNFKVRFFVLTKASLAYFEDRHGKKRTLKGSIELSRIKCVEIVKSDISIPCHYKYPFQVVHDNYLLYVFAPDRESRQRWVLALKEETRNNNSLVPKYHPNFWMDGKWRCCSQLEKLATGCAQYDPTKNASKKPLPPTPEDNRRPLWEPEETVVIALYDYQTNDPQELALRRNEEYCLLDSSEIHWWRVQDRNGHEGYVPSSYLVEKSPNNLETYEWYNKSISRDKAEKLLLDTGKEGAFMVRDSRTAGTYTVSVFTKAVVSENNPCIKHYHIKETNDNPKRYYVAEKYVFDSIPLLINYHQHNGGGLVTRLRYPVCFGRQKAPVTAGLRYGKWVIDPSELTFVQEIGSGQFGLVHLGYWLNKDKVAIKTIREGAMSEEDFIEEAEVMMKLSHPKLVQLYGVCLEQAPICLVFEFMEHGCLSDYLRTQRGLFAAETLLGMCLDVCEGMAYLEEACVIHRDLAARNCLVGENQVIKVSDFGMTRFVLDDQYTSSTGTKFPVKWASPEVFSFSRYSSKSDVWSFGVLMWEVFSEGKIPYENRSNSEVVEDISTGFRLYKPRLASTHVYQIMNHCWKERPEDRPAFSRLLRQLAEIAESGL
In short: as §1

[5] = target: T5, MLK1(h) (Homo sapiens, UniProt P80192)
T5 construct: gene MAP3K9
In short: as §1

[6] = target: T6, MuSK(h) (Homo sapiens, UniProt O15146)
T6 sequence (O15146 1-869): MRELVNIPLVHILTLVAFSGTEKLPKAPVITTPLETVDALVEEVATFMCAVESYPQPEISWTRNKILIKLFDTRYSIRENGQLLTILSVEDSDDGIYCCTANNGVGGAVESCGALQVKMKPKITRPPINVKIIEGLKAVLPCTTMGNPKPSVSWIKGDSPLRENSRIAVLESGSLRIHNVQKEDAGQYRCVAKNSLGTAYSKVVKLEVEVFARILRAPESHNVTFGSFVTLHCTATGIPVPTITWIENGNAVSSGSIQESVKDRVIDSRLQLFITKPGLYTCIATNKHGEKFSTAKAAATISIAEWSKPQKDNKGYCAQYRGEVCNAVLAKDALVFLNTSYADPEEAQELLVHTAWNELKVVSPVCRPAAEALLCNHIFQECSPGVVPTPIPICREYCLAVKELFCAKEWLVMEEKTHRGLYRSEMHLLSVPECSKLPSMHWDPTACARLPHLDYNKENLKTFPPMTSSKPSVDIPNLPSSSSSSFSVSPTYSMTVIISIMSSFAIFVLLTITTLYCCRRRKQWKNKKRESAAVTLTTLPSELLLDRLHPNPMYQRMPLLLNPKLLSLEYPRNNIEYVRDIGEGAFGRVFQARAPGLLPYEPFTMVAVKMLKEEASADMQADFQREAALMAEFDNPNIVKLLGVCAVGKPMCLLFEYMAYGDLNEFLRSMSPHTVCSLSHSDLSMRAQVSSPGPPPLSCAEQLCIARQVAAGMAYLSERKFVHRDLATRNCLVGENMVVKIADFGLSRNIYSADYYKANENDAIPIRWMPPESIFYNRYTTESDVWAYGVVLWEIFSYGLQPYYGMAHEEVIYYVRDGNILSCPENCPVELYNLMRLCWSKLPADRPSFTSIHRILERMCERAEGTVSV
In short: as §1

[7] = read-out: Residual activity (%) Spautin-1 5aa
[8] = read-out: Residual activity (%) 5as
[9] = read-out: Residual activity (%) 5at
[10] = read-out: Residual activity (%) 5ay

T5 sequence (P80192 whole entry): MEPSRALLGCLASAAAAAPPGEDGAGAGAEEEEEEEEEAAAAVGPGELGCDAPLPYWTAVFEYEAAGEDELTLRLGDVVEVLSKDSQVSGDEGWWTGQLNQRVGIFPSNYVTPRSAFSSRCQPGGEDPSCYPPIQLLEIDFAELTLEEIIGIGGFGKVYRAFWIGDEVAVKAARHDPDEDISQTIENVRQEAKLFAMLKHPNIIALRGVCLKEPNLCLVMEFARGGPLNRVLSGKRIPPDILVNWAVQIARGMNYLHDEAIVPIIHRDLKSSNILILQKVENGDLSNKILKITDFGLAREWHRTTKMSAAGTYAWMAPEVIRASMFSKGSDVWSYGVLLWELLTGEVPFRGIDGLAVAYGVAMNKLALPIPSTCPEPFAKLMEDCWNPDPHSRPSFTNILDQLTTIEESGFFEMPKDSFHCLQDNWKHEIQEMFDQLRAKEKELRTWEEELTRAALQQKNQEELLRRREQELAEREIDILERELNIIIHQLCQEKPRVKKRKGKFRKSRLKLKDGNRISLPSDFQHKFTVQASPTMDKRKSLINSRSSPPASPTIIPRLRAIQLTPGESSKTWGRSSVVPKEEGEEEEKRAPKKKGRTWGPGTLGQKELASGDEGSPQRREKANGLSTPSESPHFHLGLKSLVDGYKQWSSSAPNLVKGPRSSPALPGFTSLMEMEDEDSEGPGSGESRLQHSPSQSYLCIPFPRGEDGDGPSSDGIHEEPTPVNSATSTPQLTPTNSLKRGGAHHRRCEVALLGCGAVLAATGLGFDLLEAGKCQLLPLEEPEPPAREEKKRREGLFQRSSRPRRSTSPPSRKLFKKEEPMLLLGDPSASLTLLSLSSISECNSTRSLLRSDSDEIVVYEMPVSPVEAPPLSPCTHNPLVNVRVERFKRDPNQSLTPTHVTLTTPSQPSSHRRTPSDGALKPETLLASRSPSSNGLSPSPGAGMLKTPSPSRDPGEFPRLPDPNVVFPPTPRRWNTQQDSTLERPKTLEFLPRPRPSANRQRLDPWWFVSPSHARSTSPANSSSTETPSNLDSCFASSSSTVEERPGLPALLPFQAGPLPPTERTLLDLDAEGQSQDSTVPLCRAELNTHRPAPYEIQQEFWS
T3 sequence (P08069 whole entry): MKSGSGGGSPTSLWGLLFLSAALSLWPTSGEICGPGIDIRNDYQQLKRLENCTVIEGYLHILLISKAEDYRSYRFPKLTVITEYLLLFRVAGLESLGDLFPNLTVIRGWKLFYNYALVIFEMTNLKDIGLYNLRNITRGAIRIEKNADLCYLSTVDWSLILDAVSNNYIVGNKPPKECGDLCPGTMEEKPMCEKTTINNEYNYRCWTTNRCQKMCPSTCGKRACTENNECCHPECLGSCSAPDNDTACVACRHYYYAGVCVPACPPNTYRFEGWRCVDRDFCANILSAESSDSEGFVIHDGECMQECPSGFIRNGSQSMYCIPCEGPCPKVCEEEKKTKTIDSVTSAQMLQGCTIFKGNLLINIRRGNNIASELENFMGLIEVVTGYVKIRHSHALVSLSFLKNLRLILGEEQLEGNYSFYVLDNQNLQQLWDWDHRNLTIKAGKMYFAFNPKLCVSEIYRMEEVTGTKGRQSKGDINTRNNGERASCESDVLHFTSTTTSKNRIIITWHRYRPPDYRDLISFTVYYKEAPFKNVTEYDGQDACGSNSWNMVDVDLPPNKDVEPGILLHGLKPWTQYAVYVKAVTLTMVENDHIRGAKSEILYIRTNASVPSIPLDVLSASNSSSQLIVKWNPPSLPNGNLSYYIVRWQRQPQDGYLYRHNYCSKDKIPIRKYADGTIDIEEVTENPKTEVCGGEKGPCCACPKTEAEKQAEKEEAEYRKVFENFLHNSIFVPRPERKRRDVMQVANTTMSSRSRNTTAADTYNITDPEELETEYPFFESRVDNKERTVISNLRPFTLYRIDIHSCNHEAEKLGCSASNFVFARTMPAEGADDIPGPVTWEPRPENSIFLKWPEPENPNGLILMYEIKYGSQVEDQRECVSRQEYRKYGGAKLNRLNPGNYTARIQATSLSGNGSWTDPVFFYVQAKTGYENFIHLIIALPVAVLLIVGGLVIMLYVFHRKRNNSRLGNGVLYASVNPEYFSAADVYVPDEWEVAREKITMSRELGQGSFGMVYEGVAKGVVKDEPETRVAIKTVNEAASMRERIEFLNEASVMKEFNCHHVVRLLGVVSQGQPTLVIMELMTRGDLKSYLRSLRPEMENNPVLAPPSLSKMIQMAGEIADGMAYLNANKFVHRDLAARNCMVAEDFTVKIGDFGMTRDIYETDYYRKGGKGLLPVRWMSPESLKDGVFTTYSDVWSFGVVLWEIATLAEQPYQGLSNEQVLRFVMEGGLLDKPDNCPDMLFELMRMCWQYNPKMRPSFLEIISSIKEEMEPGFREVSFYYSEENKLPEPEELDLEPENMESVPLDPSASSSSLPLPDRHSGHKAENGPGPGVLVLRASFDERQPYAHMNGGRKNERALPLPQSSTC
T2 sequence (Q9Y6M4 whole entry): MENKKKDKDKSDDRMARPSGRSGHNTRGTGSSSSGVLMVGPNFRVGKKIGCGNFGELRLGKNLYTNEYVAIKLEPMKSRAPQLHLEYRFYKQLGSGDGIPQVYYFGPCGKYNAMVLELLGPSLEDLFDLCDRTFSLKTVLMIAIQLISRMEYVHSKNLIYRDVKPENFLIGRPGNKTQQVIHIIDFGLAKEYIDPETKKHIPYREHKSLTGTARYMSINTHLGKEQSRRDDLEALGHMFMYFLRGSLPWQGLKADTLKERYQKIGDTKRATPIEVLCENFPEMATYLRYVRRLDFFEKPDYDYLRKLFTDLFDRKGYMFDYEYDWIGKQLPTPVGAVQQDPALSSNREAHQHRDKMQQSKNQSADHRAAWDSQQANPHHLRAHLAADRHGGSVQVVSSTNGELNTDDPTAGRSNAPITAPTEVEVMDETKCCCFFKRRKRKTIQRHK

Q: With `Fc1ccc(CNc2ncnc3ccc(F)cc23)cc1` [5aa, 6-Fluoro-N-(4-fluorobenzyl)-4-Quinazolinamine] as the compound, how does the remaining activity at 10 µM [1, 7] read?
A: 60%

Q: And the remaining activity at 10 µM [2, 7]?
A: 81%

Q: What about the remaining activity at 10 µM [3, 7] of the same compound?
A: 90%

Q: What about the remaining activity at 10 µM [4, 7] of the same compound?
A: 117%

Q: What about the remaining activity at 10 µM [5, 7] of the same compound?
A: 89%

Q: What about the remaining activity at 10 µM [6, 7] of the same compound?
A: 74%

Q: For `Fc1ccc(CCNc2ncnc3ccc(F)cc23)cc1` [5as, 6-Fluoro-N-[2-(4-Fluorophenyl)Ethyl]-4-Quinazolinamine], which remaining activity at 10 µM [1, 8] is on record?
A: 45%

Q: And the remaining activity at 10 µM [2, 8]?
A: 87%

Q: And the remaining activity at 10 µM [3, 8]?
A: 83%

Q: What about the remaining activity at 10 µM [4, 8] of the same compound?
A: 97%

Q: What about the remaining activity at 10 µM [5, 8] of the same compound?
A: 77%

Q: What about the remaining activity at 10 µM [6, 8] of the same compound?
A: 81%

Q: What does the source list for `Fc1ccc2ncnc(NCCc3ccc(Cl)cc3)c2c1` [5at, N-[2-(4-Chlorophenyl)Ethyl]-6-Fluoro-4-Quinazolinamine]?
A: remaining activity at 10 µM [1, 9]: 58%; remaining activity at 10 µM [2, 9]: 73%; remaining activity at 10 µM [3, 9]: 83%; remaining activity at 10 µM [4, 9]: 103%; remaining activity at 10 µM [5, 9]: 76%; remaining activity at 10 µM [6, 9]: 97%

Q: With `COc1ccc2ncnc(Nc3cccc(F)c3)c2c1` [5ay, N-(3-Fluorophenyl)-6-Methoxy-4-Quinazolinamine] as the compound, how does the remaining activity at 10 µM [1, 10] read?
A: 50%

Q: What about the remaining activity at 10 µM [2, 10] of the same compound?
A: 83%

Q: What about the remaining activity at 10 µM [3, 10] of the same compound?
A: 101%

Q: What about the remaining activity at 10 µM [4, 10] of the same compound?
A: 88%

Q: What about the remaining activity at 10 µM [5, 10] of the same compound?
A: 68%

Q: And the remaining activity at 10 µM [6, 10]?
A: 70%

Source: publication PMC7827406, “Structure–Activity Relationship (SAR) Study of Spautin-1 to Entail the Discovery of Novel NEK4 Inhibitors” (International Journal of Molecular Sciences, 2021)
